Assay [1] can be described thus: Induction of NGF gene expression in human 1321N1 cells at 200 uM relative to control. The format is functional.
The next assay deals with PC-12. The experiment in a line: Stimulation of neurite outgrowth in rat PC12 cells assessed as morphological change at 200 uM after 24 hrs. The format is functional, cell-based.

The text below walks through data of ChEMBL document CHEMBL1142930, “Cyathane diterpenes from Sarcodon cyrneus and evaluation of their activities of neuritegenesis and nerve growth factor production” (2007).

Structures are written as SMILES. Activity calls are given as the source filed them. The rule behind the calls is not given here.

The molecule `CC(C)C1=C2C3=CC=C(C=O)C[C@H](O)[C@]3(C)CC[C@@]2(C)[C@H](O)C1` [CYRNEINE A] came in with a Fold change in assay [1] of 3.8.
Still for that read-out and setting: next, `CC(C)C1=CC(=O)[C@]2(C)CC[C@]3(C)C(=CC=C(C=O)C[C@@H]3O)[C@]12O` [CYRNEINE B]: 7.3.
With `CC(C)C1=CC(=O)[C@]2(C)CC[C@@]3(C)C(=O)CC(C=O)=CC[C@@H]3[C@H]12` [CYRNEINE C], the outcome in the assay on PC-12 was inactive. For the same molecule, the Fold change in assay [1] came to 2.7.
Take `CC(C)C1=CC(=O)[C@]2(C)CC[C@@]3(C)C(=O)CC(C=O)=CC[C@@H]3[C@]12O` [CYRNEINE D]: in the assay on PC-12, the result was inactive. The Fold change in assay [1] was determined as 1.3.
With `CC(C)C1=CC(=O)[C@]2(C)CC[C@]3(C)C(=CC=C(C=O)C[C@@H]3O)[C@H]12` [GLAUCOPINE C], the outcome with PC-12 was inactive. This molecule gave a Fold change in assay [1] of 3.5.
